SMILES strings stand for the structures.

From patent US5663346A, “Substituted azaindolylidene compounds and process for their preparation” (Pharmacia S.p.A., priority 1994, dated 1997) come the findings set out here.

Assay [1] addresses p45 v-abl tyrosine kinase. The experiment in a line: p45 v-abl Kinase Assay ((Val5)-Angiotensin II phosphorylation). The format is biochemical, Abelson murine leukemia virus. As to conditions: in-vitro; (Val5)-Angiotensin II 2 mM, ATP 50 mM, 40 ng abl-kinase, pH 8.0; read-out: Inhibition of p-45 v-abl kinase, IC50. As for the experimental part: p45 v-abl Kinase Purification
The enzyme used in our test was the p45 v-abl tyrosine kinase which represents the catalytic domain of the Abelson tyrosine kinase (isolated from the Abelson murine leukemia virus). The p45 v-abl kinase was produced and isolated as described by Wang et al. in J. Biol. chem 260, 64 (1985) and by Ferguson et al. in J. Biol. Chem 260, 3652 (1985) and in Biochem J. 257, 321 (1989).
(Val^5 )-Angiotensin II phosphorylation was performed by incubation with 40 ng of purified abl-kinase and (g-^32 p)-ATP, in […] of buffer containing Tris-HCl 25 mM, Ph 8.0, MgCl2 10 Mm and dithiothreitol 0.1 Mm (kinase buffer). The reaction mixture was incubated for the indicated time at […] and the reaction stopped by adding […] of 5% trichloroacetic acid. After a brief incubation on ice, tubes were centrifuged. The supernatants were spotted on phosphocellulose paper squares (Whatman P-81) and washed extensively in acetic acid. The radioactivity bound to dried phosphocellulose squares was measured in a liquid scintillation counter. IC50 values were. calculated from triplicated determinations of each experimental point. Each inhibitor was tested at concentrations ranging from […] in the presence of fixed concentrations of peptide (2 mM) and ATP (50 mM).

The test system of a further assay is K562 cells. The assay is described as follows: K562 cell Growth Inhibition Assay. In kind it is cell-based. As to conditions: Homo sapiens, 66 h incubation, [3H]-Thymidine incorporation, with or without 10% foetal calf serum. As for the experimental part: In-vivo Assay K562 cell Growth Inhibition Assay 1 ml of K562 cells, grown in suspension, were incubated for 66 h with or without 10% foetal calf serum in the presence of 1 mCi of [^3 H]-Thymidine. Cells were harvested, washed three times in cold PBS and treated with 5% trichloroacetic acid for 5 min. on ice. […] The extract was counted in a liquid scintillation counter. The inhibitory activity data for a representative compound according to the present invention, obtained both in the in-vitro p45 v-abl kinase assay and in the in-vivo human chronic myeloid leukemia K562 cell growth inhibition assay described above, are set out in Table 1.

One may read the IC50 as the concentration that gives 50% inhibition. `Nc1ccc2c(c1)C(=Cc1c[nH]c3ncccc13)C(=O)N2` [5-amino-3-[(7-azaindol-3-yl)methylen]-2-oxindole ditrifluoroacetate]: the results for the 50% inhibitory concentration (IC50) (in assay [1]; in the assay with K562 cells) were 0.09 µM and 8.8 µM, respectively.
In the case of `N#Cc1ccc2c(c1)C(=Cc1c[nH]c3ncccc13)C(=O)N2` [5-cyano-3-[(7-azaindol-3-yl)methylen]-2-oxindole], the IC50 in assay [1] came to 0.98 µM; with K562 cells it was 2.52 µM.
